From patent US12139520B2 (priority 2020, dated 2024) come the findings set out here.

As usually defined, the EC50 is the concentration needed to bring the measured effect to its halfway point.

Each structure is given as a SMILES string. Numbered stars: 1 amine (or outer) side, 2 acyl side, 3 side chain; on linkers, the order of the positions; unused ones are H or OH. Bridge positions count the residues as written; N and C are the ends. Square brackets hold non-standard residues; d marks the D form. Side chains are listed from the residue outwards. Peptide text beside a SMILES is read from it. * marks the point of attachment. C20 diacid = O=C(O)CCCCCCCCCCCCCCCCCCC(=O)*; γGlu = O=C(O)[C@H](CCC(=O)[*:2])N[*:1]; Hyp = O=C(O)[C@@H]1C[C@@H](O)CN1; NMeI = CC[C@H](C)[C@H](NC)C(=O)O; Aad = N[C@@H](CCCC(=O)O)C(=O)O; AEEA = NCCOCCOCC(=O)O; Sar = CNCC(=O)O

In one test the target is T1, hAMY3 receptor (Homo sapiens, UniProt O60896+P30988).
T1 sequence (P30988 25-474): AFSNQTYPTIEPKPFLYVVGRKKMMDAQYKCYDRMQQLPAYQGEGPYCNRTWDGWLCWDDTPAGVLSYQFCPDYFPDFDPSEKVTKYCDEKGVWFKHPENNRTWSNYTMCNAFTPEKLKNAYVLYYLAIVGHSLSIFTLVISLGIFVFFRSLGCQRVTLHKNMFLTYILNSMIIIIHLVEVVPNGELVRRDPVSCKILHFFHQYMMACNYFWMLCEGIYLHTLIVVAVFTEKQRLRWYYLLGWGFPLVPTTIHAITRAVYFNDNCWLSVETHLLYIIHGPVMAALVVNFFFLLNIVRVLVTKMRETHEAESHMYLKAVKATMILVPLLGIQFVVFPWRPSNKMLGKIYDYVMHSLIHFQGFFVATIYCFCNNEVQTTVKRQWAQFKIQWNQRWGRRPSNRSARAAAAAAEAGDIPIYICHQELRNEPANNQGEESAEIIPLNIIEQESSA
T1 sequence (O60896 24-148 partner): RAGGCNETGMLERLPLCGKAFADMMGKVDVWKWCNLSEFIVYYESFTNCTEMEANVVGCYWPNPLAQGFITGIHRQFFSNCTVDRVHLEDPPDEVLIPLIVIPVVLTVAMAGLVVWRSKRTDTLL
The test is described as follows: cAMP assay for in vitro receptor activation, hAMY3-R. Type of test: cell-based. Conditions: cAMP assay, hAMY3 receptor; read-out: hAMY3R EC50. The gist of the method: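 Accumulated cAMP was detected by time-resolved FRET one hour after reagent addition. Beforehand, hAMY3-R-overexpressing monoclonal cells (2000/well, DPBS, 0.05% casein, 0.5 mM IBMX) received graded doses of compound for 30 min at room temperature; human amylin served as positive control.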

The next test deals with hAM1 receptor (Homo sapiens, UniProt O60895+Q16602). The test is described as follows: cAMP assay for in vitro receptor activation, hAM1-R. Type of test: cell-based. Conditions: cAMP assay, hAM1 receptor; read-out: hAM1R EC50. The gist of the method:
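Stable hAM1 cells (monoclonal) plated 8000/well; buffer DPBS, 0.05% casein, 0.5 mM IBMX; cAMP read-out.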
For orientation: Cyclic AMP is a second messenger, typically raised through Gs and lowered through Gi signalling.

hAM1 receptor, sequence (Q16602 23-461): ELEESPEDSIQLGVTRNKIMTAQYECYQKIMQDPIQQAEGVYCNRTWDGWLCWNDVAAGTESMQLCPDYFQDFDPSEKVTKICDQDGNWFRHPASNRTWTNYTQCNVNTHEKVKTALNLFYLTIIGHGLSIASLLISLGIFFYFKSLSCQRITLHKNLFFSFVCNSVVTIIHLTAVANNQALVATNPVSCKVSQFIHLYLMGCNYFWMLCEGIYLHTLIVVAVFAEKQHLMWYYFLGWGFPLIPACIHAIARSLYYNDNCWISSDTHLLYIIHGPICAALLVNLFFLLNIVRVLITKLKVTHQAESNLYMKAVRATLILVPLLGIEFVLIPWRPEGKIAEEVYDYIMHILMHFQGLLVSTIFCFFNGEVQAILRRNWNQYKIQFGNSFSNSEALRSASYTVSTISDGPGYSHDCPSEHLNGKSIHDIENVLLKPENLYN
hAM1 receptor, sequence (O60895 43-175 partner): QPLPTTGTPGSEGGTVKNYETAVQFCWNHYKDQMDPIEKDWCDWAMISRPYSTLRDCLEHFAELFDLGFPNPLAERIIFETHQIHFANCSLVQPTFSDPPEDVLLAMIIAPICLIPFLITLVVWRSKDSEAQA

For `CC[C@H](C)[C@H](NC(=O)[C@H](CCC(N)=O)NC(=O)[C@H](Cc1c[nH]cn1)NC(=O)[C@H](C)NC(=O)[C@H](CC(C)C)NC(=O)[C@H](CCCNC(=N)N)NC(=O)[C@H](CCC(N)=O)NC(=O)[C@@H](NC(=O)[C@@H](NC(=O)[C@@H]1CSSC[C@H](NC(=O)[C@H](CCCCN)NC(=O)CC[C@H](NC(=O)CCCCCCCCCCCCCCCCCCC(=O)O)C(=O)O)C(=O)N[C@@H](CC(N)=O)C(=O)N[C@@H](Cc2ccccc2)C(=O)N[C@@H](C)C(=O)N[C@@H]([C@@H](C)O)C(=O)N1)[C@@H](C)O)C(C)C)C(=O)N[C@@H](Cc1ccc(O)cc1)C(=O)N[C@@H](CCC(N)=O)C(=O)N[C@@H](Cc1ccccc1)C(=O)N[C@H](C(=O)N[C@@H](CC(=O)O)C(=O)N[C@@H](CCCCN)C(=O)N[C@@H](CC(=O)O)C(=O)N[C@@H](CCCCN)C(=O)N[C@@H](CC(=O)O)C(=O)N[C@@H](CC(N)=O)C(=O)N[C@H](C(=O)N[C@@H](C)C(=O)N1CCC[C@H]1C(=O)N[C@@H](CCCNC(=N)N)C(=O)N[C@H](C(=O)N[C@@H](CCC(=O)O)C(=O)N[C@H](C(=O)NCC(=O)N[C@@H](CO)C(=O)N[C@@H](CC(N)=O)C(=O)NCC(=O)N1C[C@H](O)C[C@H]1C(N)=O)C(C)C)[C@@H](C)O)C(C)C)[C@@H](C)O` [compound 67] ({C20 diacid-γGlu}-KCNFATCTVQRLAHQIYQFTDKDKDNVAPRTEVGSNG[Hyp]-NH2; disulfide 2-7), the EC50 amounted to 0.013 nM at hAMY3 receptor and 116 nM on hAM1 receptor.

Turning to `CC[C@H](C)[C@H](NC(=O)[C@H](CCC(N)=O)NC(=O)[C@H](Cc1c[nH]cn1)NC(=O)[C@H](C)NC(=O)[C@H](CC(C)C)NC(=O)[C@H](CCCNC(=N)N)NC(=O)[C@H](CCC(N)=O)NC(=O)[C@@H](NC(=O)[C@@H](NC(=O)[C@@H]1CSSC[C@H](NC(=O)[C@H](CCCCN)NC(=O)CC[C@H](NC(=O)CCCCCCCCCCCCCCCCCCC(=O)O)C(=O)O)C(=O)N[C@@H](CC(N)=O)C(=O)N[C@@H]([C@@H](C)O)C(=O)N[C@@H](C)C(=O)N[C@@H]([C@@H](C)O)C(=O)N1)[C@@H](C)O)C(C)C)C(=O)N[C@@H](C)C(=O)N[C@@H](CCC(N)=O)C(=O)N[C@@H](Cc1ccc(O)cc1)C(=O)N[C@H](C(=O)N[C@@H](CC(=O)O)C(=O)N[C@@H](CCCCN)C(=O)N[C@@H](CC(=O)O)C(=O)N[C@@H](CCCCN)C(=O)N[C@@H](CC(=O)O)C(=O)N[C@@H](CC(N)=O)C(=O)N[C@H](C(=O)N[C@@H](C)C(=O)N1CCC[C@H]1C(=O)N1CCC[C@H]1C(=O)N[C@H](C(=O)N[C@@H](CC(N)=O)C(=O)N[C@H](C(=O)NCC(=O)N[C@@H](CO)C(=O)N[C@@H](CC(N)=O)C(=O)NCC(=O)N1C[C@H](O)C[C@H]1C(N)=O)C(C)C)[C@@H](C)O)C(C)C)[C@@H](C)O` [compound 71] ({C20 diacid-γGlu}-KCNTATCTVQRLAHQIAQYTDKDKDNVAPPTNVGSNG[Hyp]-NH2; disulfide 2-7), the 50% effective concentration (EC50) on hAMY3 receptor was 0.013 nM; at hAM1 receptor it was greater than 5000 nM.

Regarding `CC[C@H](C)[C@H](NC(=O)[C@H](CCC(N)=O)NC(=O)[C@H](CCC(=O)O)NC(=O)[C@H](C)NC(=O)[C@H](CC(C)C)NC(=O)[C@H](CCCNC(=N)N)NC(=O)[C@H](CCC(N)=O)NC(=O)[C@@H](NC(=O)[C@@H](NC(=O)[C@@H]1CSSC[C@H](NC(=O)[C@H](CCCCN)NC(=O)CC[C@H](NC(=O)CCCCCCCCCCCCCCCCCCC(=O)O)C(=O)O)C(=O)N[C@@H](CC(N)=O)C(=O)N[C@@H]([C@@H](C)O)C(=O)N[C@@H](C)C(=O)N[C@@H]([C@@H](C)O)C(=O)N1)[C@@H](C)O)C(C)C)C(=O)N[C@@H](Cc1ccc(O)cc1)C(=O)N[C@@H](CCC(N)=O)C(=O)N[C@@H](Cc1ccccc1)C(=O)N[C@H](C(=O)N[C@@H](CC(=O)O)C(=O)N[C@@H](CCCCN)C(=O)N[C@@H](CC(=O)O)C(=O)N[C@@H](CCCCN)C(=O)N[C@@H](CC(=O)O)C(=O)N[C@@H](CC(N)=O)C(=O)N[C@H](C(=O)N[C@@H](C)C(=O)N1CCC[C@H]1C(=O)N1CCC[C@H]1C(=O)N[C@H](C(=O)N[C@@H](CCC(N)=O)C(=O)N[C@H](C(=O)NCC(=O)N[C@@H](CO)C(=O)N[C@@H](CC(N)=O)C(=O)NCC(=O)N1C[C@H](O)C[C@H]1C(N)=O)C(C)C)[C@@H](C)O)C(C)C)[C@@H](C)O` [compound 73] ({C20 diacid-γGlu}-KCNTATCTVQRLAEQIYQFTDKDKDNVAPPTQVGSNG[Hyp]-NH2; disulfide 2-7), the EC50 is 0.013 nM on hAMY3 receptor and greater than 5000 nM at hAM1 receptor.

For `CC[C@H](C)[C@H](NC(=O)[C@H](CCC(N)=O)NC(=O)[C@H](CCCCNC(=O)COCCOCCNC(=O)COCCOCCNC(=O)CC[C@H](NC(=O)CCCCCCCCCCCCCCCCCCC(=O)O)C(=O)O)NC(=O)[C@H](C)NC(=O)[C@H](CC(C)C)NC(=O)[C@H](CCCNC(=N)N)NC(=O)[C@H](CCC(N)=O)NC(=O)[C@@H](NC(=O)[C@@H](NC(=O)[C@@H]1CSSC[C@H](NC(=O)[C@@H](N)CCCCN)C(=O)N[C@@H](CC(N)=O)C(=O)N[C@@H]([C@@H](C)O)C(=O)N[C@@H](C)C(=O)N[C@@H]([C@@H](C)O)C(=O)N1)[C@@H](C)O)C(C)C)C(=O)N[C@@H](Cc1ccc(O)cc1)C(=O)N[C@@H](CCC(N)=O)C(=O)N[C@@H](Cc1ccccc1)C(=O)N[C@H](C(=O)N[C@@H](CC(=O)O)C(=O)N[C@@H](CCCCN)C(=O)N[C@@H](CC(=O)O)C(=O)N[C@@H](CCCCN)C(=O)N[C@@H](CC(=O)O)C(=O)N[C@@H](CC(N)=O)C(=O)N[C@H](C(=O)N[C@@H](C)C(=O)N1CCC[C@H]1C(=O)N1CCC[C@H]1C(=O)N[C@H](C(=O)N[C@@H](CC(N)=O)C(=O)N[C@H](C(=O)NCC(=O)N[C@@H](CO)C(=O)N[C@@H](CC(N)=O)C(=O)NCC(=O)N1C[C@H](O)C[C@H]1C(N)=O)C(C)C)[C@@H](C)O)C(C)C)[C@@H](C)O` [compound 74] (H-KCNTATCTVQRLAK([AEEA-AEEA-γGlu-C20 diacid])QIYQFTDKDKDNVAPPTNVGSNG[Hyp]-NH2; disulfide 2-7; N-terminus assumed), the EC50 was 0.013 nM on hAMY3 receptor and greater than 5000 nM on hAM1 receptor.

`CC[C@H](C)[C@H](NC(=O)[C@H](CCC(N)=O)NC(=O)[C@H](Cc1c[nH]cn1)NC(=O)[C@H](C)NC(=O)[C@H](CC(C)C)NC(=O)[C@H](CCCNC(=N)N)NC(=O)[C@H](CCC(N)=O)NC(=O)[C@@H](NC(=O)[C@@H](NC(=O)[C@@H]1CSSC[C@H](NC(=O)[C@@H](N)CCCCN)C(=O)N[C@@H](CC(N)=O)C(=O)N[C@@H]([C@@H](C)O)C(=O)N[C@@H](C)C(=O)N[C@@H]([C@@H](C)O)C(=O)N1)[C@@H](C)O)C(C)C)C(=O)N[C@@H](Cc1ccc(O)cc1)C(=O)N[C@@H](CCC(N)=O)C(=O)N[C@@H](Cc1ccccc1)C(=O)N[C@H](C(=O)N[C@@H](CC(=O)O)C(=O)N[C@@H](CCCCN)C(=O)N[C@@H](CC(=O)O)C(=O)N[C@@H](CCCCN)C(=O)N[C@@H](CC(=O)O)C(=O)N[C@@H](CC(N)=O)C(=O)N[C@H](C(=O)N[C@@H](C)C(=O)N1CCC[C@H]1C(=O)N1CCC[C@H]1C(=O)N[C@H](C(=O)N[C@@H](CC(N)=O)C(=O)N[C@H](C(=O)NCC(=O)N[C@@H](CO)C(=O)N[C@@H](CC(N)=O)C(=O)NCC(=O)N1C[C@H](O)C[C@H]1C(N)=O)C(C)C)[C@@H](C)O)C(C)C)[C@@H](C)O` [compound 75] (H-KCNTATCTVQRLAHQIYQFTDKDKDNVAPPTNVGSNG[Hyp]-NH2; disulfide 2-7; N-terminus assumed): the concentration giving a half-maximal response (EC50) was 0.013 nM on hAMY3 receptor and greater than 5000 nM on hAM1 receptor.

In the case of `CC[C@H](C)[C@@H](C(=O)N[C@@H](CC(C)C)C(=O)N[C@@H](CO)C(=O)N[C@@H](CO)C(=O)N[C@H](C(=O)N[C@@H](CCC(=O)O)C(=O)N[C@H](C(=O)NCC(=O)N[C@@H](CO)C(=O)N[C@@H](CC(N)=O)C(=O)N[C@H](C(=O)N1C[C@H](O)C[C@H]1C(N)=O)[C@@H](C)O)C(C)C)[C@@H](C)O)N(C)C(=O)[C@H](C)NC(=O)CN(C)C(=O)[C@H](Cc1ccccc1)NC(=O)[C@H](CO)NC(=O)[C@H](CO)NC(=O)[C@H](CCCNC(=N)N)NC(=O)[C@H](CCC(N)=O)NC(=O)[C@H](CC(C)C)NC(=O)[C@H](Cc1ccccc1)NC(=O)[C@H](CCCC(=O)O)NC(=O)[C@H](C)NC(=O)[C@H](CC(C)C)NC(=O)[C@H](CCCNC(=N)N)NC(=O)[C@H](CCC(=O)O)NC(=O)[C@@H](NC(=O)[C@H](C)NC(=O)[C@@H]1CSSC[C@H](NC(=O)[C@H](CCCNC(=N)N)NC(=O)CC[C@H](NC(=O)CCCCCCCCCCCCCCCCCCC(=O)O)C(=O)O)C(=O)NCC(=O)N[C@@H]([C@@H](C)O)C(=O)N[C@@H](C)C(=O)N[C@@H]([C@@H](C)O)C(=O)N1)[C@@H](C)O` [compound 76] ({C20 diacid-γGlu}-RCGTATCATERLA[Aad]FLQRSSF[Sar]A[NMeI]LSSTEVGSNT[Hyp]-NH2; disulfide 2-7), the figures for the half-maximal effective concentration (EC50) at hAMY3 receptor and at hAM1 receptor were 0.014 nM and greater than 5000 nM, respectively.
